Tests used:
[1] = tested on: CT26.CL25 colon cancer tumor endothelial cells; test: Colon CT26 ex vivo model of tumor angiogenesis; type: cell-based, mouse; conditions: for cytotoxicity at 40 µM / cytotoxicity at 10 µM / cytotoxicity at 20 µM: Mus musculus, Endothelial cell, 48 h, read-out: Cell death
Outline: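 Pieces of CT26 mouse tumor (~0.075 mm³) embedded in Matrigel and cultured in endothelial growth medium at 37 °C, 5% CO2 until endothelial outgrowth appeared (about 7 days), then treated. About 48 h after drug addition, live/dead staining with fluorescein diacetate and propidium iodide was imaged in green and red channels.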

[2] = tested on: LL/2 lung cancer tumor endothelial cells; test: Lung LL2 ex vivo model of tumor angiogenesis; type: cell-based, mouse; conditions: for Cell death: drug treatment for two days, ratio of red area to total endothelial cell area; for cytotoxicity at 40 µM / cytotoxicity at 20 µM: Mus musculus, Endothelial cell, 48 h, read-out: Cell death; for 48 hrs (morphology observations): LL/2 tumor endothelial cells
Outline: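 LL2 mouse tumor fragments (~0.075 mm³) embedded in Matrigel and cultured in endothelial growth medium at 37 °C until endothelial outgrowth (~4 days) before treatment. Cell death assessed e.g. 48 h after drug by fluorescein diacetate (live)/propidium iodide (dead) staining and red/green fluorescence imaging.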

SMILES | 48 hrs (morphology observations after 48 hours) ([1]; Conc. 40 μm) | cytotoxicity at 40 µM [1] | 48 hrs (morphology observations) ([2]; 20 μm) | cytotoxicity at 20 µM [2] | other results
CCc1ccc(S(=O)(=O)c2cnc3ccc(OC(F)(F)F)cc3c2N2CCCC(O)C2)cc1 (stereo not drawn) [Compound 82] | 0 | 10% | – | – | Cell death ([2]; 40 μm): 60%
CCOC(=O)c1ccc2ncc(S(=O)(=O)c3ccc(CC)cc3)c(NN3CCN(C)CC3)c2c1 [Compound 84] | * (50% or less of cells vesicularize in cell shape) | 100% | – | – | cytotoxicity at 40 µM [2]: 100%
COc1ccc(S(=O)(=O)c2cnc3ccc(OC(F)(F)F)cc3c2NN2CCN(C)CC2)cc1 [Compound 85] | 0 | 50% | – | – | Cell death ([2]; 40 μm): 80%
COc1ccc(S(=O)(=O)c2cnc3ccc(OC(F)(F)F)cc3c2-n2cncn2)cc1 [Compound 86] | – | – | *** (more than 50% but less than 100% of endothelial cells vesicularize in cell shape) | 100% | 48 hrs (morphology observations after 48 hours) ([1]; Conc. 10 μm): *** (100% of endothelial cells vesicularize in cell shape); cytotoxicity at 10 µM [1]: 100%
CCCCN(CCCC)c1c(S(=O)(=O)c2ccc(CC)cc2)cnc2ccc(OC(F)(F)F)cc12 [Compound 87] | 0 | 0% | – | – | cytotoxicity at 40 µM [2]: 0%
COc1ccc(S(=O)(=O)c2cnc3ccc(OC(F)(F)F)cc3c2NN2CCN(C)CC2)cc1OC [Compound 88] | *** (100% of endothelial cells vesicularize in cell shape) | 60% | – | – | 48 hrs (morphology observations) ([2]; 40 μm): 0; Cell death ([2]; 40 μm): 70%
COc1ccc(S(=O)(=O)c2cnc3ccc(OC(F)(F)F)cc3c2-n2cncn2)cc1OC [Compound 89] | – | – | *** (more than 50% but less than 100% of endothelial cells vesicularize in cell shape) | 100% | 48 hrs (morphology observations after 48 hours) ([1]; Conc. 10 μm): *** (100% of endothelial cells vesicularize in cell shape); cytotoxicity at 10 µM [1]: 100%
CN1CCN(Nc2c(S(=O)(=O)c3ccc(OC(F)(F)F)cc3)cnc3ccc(OC(F)(F)F)cc23)CC1 [Compound 90] | 0 | 0% | – | – | 48 hrs (morphology observations) ([2]; 40 μm): 0; cytotoxicity at 40 µM [2]: 10%
O=S(=O)(c1ccc(OC(F)(F)F)cc1)c1cnc2ccc(OC(F)(F)F)cc2c1-n1cncn1 [Compound 91] | – | – | *** (more than 50% but less than 100% of endothelial cells vesicularize in cell shape) | 80% | 48 hrs (morphology observations after 48 hours) ([1]; Conc. 10 μm): *** (100% of endothelial cells vesicularize in cell shape); cytotoxicity at 10 µM [1]: 100%
CCCCOc1ccc(S(=O)(=O)c2cnc3ccc(OC(F)(F)F)cc3c2NN2CCN(C)CC2)cc1 [Compound 92] | 0 | 0% | – | – | Cell death ([2]; 20 μm): 10%
CCCCOc1ccc(S(=O)(=O)c2cnc3ccc(OC(F)(F)F)cc3c2-n2cncn2)cc1 [Compound 93] | – | – | *** (more than 50% but less than 100% of endothelial cells vesicularize in cell shape) | 100% | 48 hrs (morphology observations after 48 hours) ([1]; Conc. 10 μm): *** (100% of endothelial cells vesicularize in cell shape); cytotoxicity at 10 µM [1]: 100%
COc1ccc(S(=O)(=O)c2cnc3ccc([N+](=O)[O-])cc3c2NN2CCN(C)CC2)cc1 [Compound 94] | 0 | 0% | – | – | Cell death ([2]; 40 μm): 20%
CCc1ccc(S(=O)(=O)c2cnc3ccc(OC(F)(F)F)cc3c2NCCO)cc1 [Compound 95] | 0 | 0% | – | – | Cell death ([2]; 40 μm): 10%
COc1ccc(S(=O)(=O)c2cnc3cc(OC)c(OC)cc3c2-n2cncn2)cc1OC [Compound 96] | – | – | – | 0% | 48 hrs (morphology observations after 48 hours) ([1]; Conc. 10 μm): 0; cytotoxicity at 10 µM [1]: 0%
COc1ccc(S(=O)(=O)c2cnc3ccc([N+](=O)[O-])cc3c2-n2cncn2)cc1 [Compound 97] | – | – | – | – | 48 hrs (morphology observations after 48 hours) ([1]; Conc. 10 μm): *** (100% of endothelial cells vesicularize in cell shape); cytotoxicity at 10 µM [1]: 100%; Cell death ([2]; 20 μm): 50%
COc1ccc(S(=O)(=O)c2cnc3ccc(CC#N)cc3c2-n2cncn2)cc1 [Compound 98] | – | – | – | – | 48 hrs (morphology observations after 48 hours) ([1]; Conc. 10 μm): *** (100% of endothelial cells vesicularize in cell shape); cytotoxicity at 10 µM [1]: 50%; Cell death ([2]; 20 μm): 10%
COc1ccc(S(=O)(=O)c2cnc3ccc(CC#N)cc3c2NN2CCN(C)CC2)cc1 [Compound 99] | 0 | 0% | – | – | Cell death ([2]; 40 μm): 10%
CCc1ccc(S(=O)(=O)c2cnc3ccc(OC(F)(F)F)cc3c2N2CCCN(CCN(CC)CC)CC2)cc1 [Compound 100] | **** (100% of endothelial cells vesicularize in cell shape and look flattened in morphology (indicating disintegration of the cell body)) | 100% | – | – | 48 hrs (morphology observations) ([2]; 40 μm): **** (100% of endothelial cells vesicularize in cell shape and look flattened in morphology (indicating disintegration of the cell body)); cytotoxicity at 40 µM [2]: 100%
CCc1ccc(S(=O)(=O)c2cnc3ccc(OC(F)(F)F)cc3c2N2CCC(OCCN(CC)CC)CC2)cc1 [Compound 101] | – | – | *** (more than 50% but less than 100% of endothelial cells vesicularize in cell shape) | 100% | 48 hrs (morphology observations after 48 hours) ([1]; Conc. 20 μm): * (50% or less of cells vesicularize in cell shape); cytotoxicity at 20 µM [1]: 50%
CCc1ccc(S(=O)(=O)c2cnc3ccc(OC(F)(F)F)cc3c2N2CCC(N3CCC(O)CC3)CC2)cc1 [Compound 102] | 0 | 5% | 0 | 20% | –
CCc1ccc(S(=O)(=O)c2cnc3ccc(OC(F)(F)F)cc3c2-n2ccnn2)cc1 [Compound 110] | ** (more than 50% but less than 100% of endothelial cells vesicularize in cell shape) | 10% | *** (more than 50% but less than 100% of endothelial cells vesicularize in cell shape) | – | Cell death ([2]; 20 μm): 95%
CCc1ccc(S(=O)(=O)c2cnc3ccc(OC(F)(F)F)cc3c2-n2nnc3ccccc32)cc1 [Compound 112] | ** (more than 50% but less than 100% of endothelial cells vesicularize in cell shape) | 10% | *** (more than 50% but less than 100% of endothelial cells vesicularize in cell shape) | – | Cell death ([2]; 20 μm): 70%
CCCCOc1ccc2ncc(S(=O)(=O)c3ccc(OC)c(OC)c3)c(N3CCC(N4CCCCC4)CC3)c2c1 [Compound 116] | – | – | *** (more than 50% but less than 100% of endothelial cells vesicularize in cell shape) | – | 48 hrs (morphology observations after 48 hours) ([1]; Conc. 20 μm): * (50% or less of cells vesicularize in cell shape); cytotoxicity at 20 µM [1]: 50%; Cell death ([2]; 20 μm): 100%
CCc1ccc(S(=O)(=O)c2cnc3ccc(OC(F)(F)F)cc3c2-n2cnc(C)c2)cc1 [Compound 117] | – | – | *** (more than 50% but less than 100% of endothelial cells vesicularize in cell shape) | 100% | 48 hrs (morphology observations after 48 hours) ([1]; Conc. 20 μm): *** (100% of endothelial cells vesicularize in cell shape); cytotoxicity at 20 µM [1]: 100%
CCc1ccc(S(=O)(=O)c2cnc3ccc(OC(F)(F)F)cc3c2-n2ccnc2)cc1 [Compound 118] | – | – | *** (more than 50% but less than 100% of endothelial cells vesicularize in cell shape) | 100% | 48 hrs (morphology observations after 48 hours) ([1]; Conc. 20 μm): *** (100% of endothelial cells vesicularize in cell shape); cytotoxicity at 20 µM [1]: 100%
CCCCOc1ccc(S(=O)(=O)c2cnc3ccc(OC(F)(F)F)cc3c2N2CCC(N3CCCCC3)CC2)cc1 [Compound 119] | – | – | *** (more than 50% but less than 100% of endothelial cells vesicularize in cell shape) | – | 48 hrs (morphology observations after 48 hours) ([1]; Conc. 20 μm): 0; cytotoxicity at 20 µM [1]: 50%; Cell death ([2]; 20 μm): 100%
COc1ccc(S(=O)(=O)c2cnc3ccc(SC)cc3c2N2CCC(N3CCCCC3)CC2)cc1OC [Compound 121] | *** (100% of endothelial cells vesicularize in cell shape) | 40% | – | – | Cell death ([2]; 40 μm): 50%
CCCCOc1ccc(S(=O)(=O)c2cnc3ccc(OC(F)(F)F)cc3c2N2CCCN(C)CC2)cc1 [Compound 151] | **** (100% of endothelial cells vesicularize in cell shape and look flattened in morphology (indicating disintegration of the cell body)) | 100% | – | – | 48 hrs (morphology observations) ([2]; 40 μm): **** (100% of endothelial cells vesicularize in cell shape and look flattened in morphology (indicating disintegration of the cell body)); cytotoxicity at 40 µM [2]: 100%
CCCCOc1ccc(S(=O)(=O)c2cnc3ccc(OC(F)(F)F)cc3c2N2CCC(N3CCC(O)CC3)CC2)cc1 [Compound 152] | ** (more than 50% but less than 100% of endothelial cells vesicularize in cell shape) | 30% | * (50% or less of cells vesicularize in cell shape) | – | Cell death ([2]; 20 μm): 20%
COc1ccc(S(=O)(=O)c2cnc3ccc(SC)cc3c2N2CCCN(C)CC2)cc1OC [Compound 154] | * (50% or less of cells vesicularize in cell shape) | 30% | – | – | 48 hrs (morphology observations) ([2]; 40 μm): * (50% or less of cells vesicularize in cell shape); cytotoxicity at 40 µM [2]: 30%
